# Results as given in the supplement of paper PMC11451515.
# Test system: NOMO1
# Assay: cell viability relative to DMSO control; higher = less cytotoxic
# Settings: 48 h
# Outline: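 Library compounds in DMSO were pin-dosed into 1536-well plates (5 μl) holding NOMO1 or SEM (500 cells/well) or P12-Ichikawa (1000 cells/well) leukemia cells, across an 11-point threefold series of 47 μM to 0.79 nM. Each cell line had been adapted for at least four passages in each medium. CellTiter-Glo One luminescence was read after 48 h at 37°C. Viability is the per-plate percentage relative to DMSO wells, with cell-free wells as background.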
# [1] = HPLM + 10% dialyzed FBS, 0.000781 µM
# [2] = HPLM + 10% dialyzed FBS, 0.00234 µM
# [3] = HPLM + 10% dialyzed FBS, 0.00702 µM
# [4] = HPLM + 10% dialyzed FBS, 0.0211 µM
# [5] = HPLM + 10% dialyzed FBS, 0.0632 µM
# [6] = HPLM + 10% dialyzed FBS, 0.19 µM
# [7] = HPLM + 10% dialyzed FBS, 0.569 µM
# [8] = HPLM + 10% dialyzed FBS, 1.71 µM
# [9] = HPLM + 10% dialyzed FBS, 5.12 µM
# [10] = HPLM + 10% dialyzed FBS, 15.4 µM
# [11] = HPLM + 10% dialyzed FBS, 46.1 µM
# [12] = RPMI 5 mM glucose + 10% FBS, 0.000781 µM
# [13] = RPMI 5 mM glucose + 10% FBS, 0.00234 µM
# [14] = RPMI 5 mM glucose + 10% FBS, 0.00702 µM
# [15] = RPMI 5 mM glucose + 10% FBS, 0.0211 µM
# [16] = RPMI 5 mM glucose + 10% FBS, 0.0632 µM
# [17] = RPMI 5 mM glucose + 10% FBS, 0.19 µM
# [18] = RPMI 5 mM glucose + 10% FBS, 0.569 µM
# [19] = RPMI 5 mM glucose + 10% FBS, 1.71 µM
# [20] = RPMI 5 mM glucose + 10% FBS, 5.12 µM
# [21] = RPMI 5 mM glucose + 10% FBS, 15.4 µM
# [22] = RPMI 5 mM glucose + 10% FBS, 46.1 µM
# [23] = RPMI 5 mM glucose + 10% dialyzed FBS, 0.000781 µM
# [24] = RPMI 5 mM glucose + 10% dialyzed FBS, 0.00234 µM
# [25] = RPMI 5 mM glucose + 10% dialyzed FBS, 0.00702 µM
# [26] = RPMI 5 mM glucose + 10% dialyzed FBS, 0.0211 µM
# [27] = RPMI 5 mM glucose + 10% dialyzed FBS, 0.0632 µM
# [28] = RPMI 5 mM glucose + 10% dialyzed FBS, 0.19 µM
# [29] = RPMI 5 mM glucose + 10% dialyzed FBS, 0.569 µM
# [30] = RPMI 5 mM glucose + 10% dialyzed FBS, 1.71 µM
# [31] = RPMI 5 mM glucose + 10% dialyzed FBS, 5.12 µM
# [32] = RPMI 5 mM glucose + 10% dialyzed FBS, 15.4 µM
# [33] = RPMI 5 mM glucose + 10% dialyzed FBS, 46.1 µM
Compound,cell viability [1] [%],cell viability [2] [%],cell viability [3] [%],cell viability [4] [%],cell viability [5] [%],cell viability [6] [%],cell viability [7] [%],cell viability [8] [%],cell viability [9] [%],cell viability [10] [%],cell viability [11] [%],cell viability [12] [%],cell viability [13] [%],cell viability [14] [%],cell viability [15] [%],cell viability [16] [%],cell viability [17] [%],cell viability [18] [%],cell viability [19] [%],cell viability [20] [%],cell viability [21] [%],cell viability [22] [%],cell viability [23] [%],cell viability [24] [%],cell viability [25] [%],cell viability [26] [%],cell viability [27] [%],cell viability [28] [%],cell viability [29] [%],cell viability [30] [%],cell viability [31] [%],cell viability [32] [%],cell viability [33] [%]
CC1(C)NC(=O)N(c2ccc([N+](=O)[O-])c(C(F)(F)F)c2)C1=O,93.3,91.4,90,107,96.2,96.9,82,92.8,90,90.1,82.3,92.9,95.5,90.9,94.6,92.8,88.7,90.1,97.8,86.3,82.2,76.4,80.9,87.7,90.8,86.6,86.2,82.2,89.3,85.9,86.5,77.5,82.1
OC[C@H]1O[C@H](C[C@@H]1O)N2\C=C(\I)C(=O)NC2=O,107,118,105,126,116,113,114,125,105,91.3,79.2,112,120,110,113,120,116,127,119,129,115,88.6,103,118,114,117,132,117,133,104,97.1,98.5,86.2
O=C(O)c1nn(Cc2ccc(Cl)cc2Cl)c2ccccc12,112,116,106,100,78.3,83.8,71.2,61.8,92.3,76.5,69.9,86.1,76.6,78.1,83.8,96.7,81.7,75.5,83.8,85.4,79.5,74,79.9,89.7,97.4,94.2,91.1,85.6,73.8,75.3,83.2,81.2,76.1
Cc1ccc([S+](=O)([O-])NC(=O)NN2CC3CCCC3C2)cc1 (configuration not stated),108,127,114,104,134,113,96.6,104,111,53.4,30.3,98,104,105,104,106,99.5,113,102,108,55.6,24.1,96.4,118,101,105,106,110,103,106,110,57.3,36
Oc1ccc(C2CNCCc3c2cc(O)c(O)c3Cl)cc1 (configuration not stated),91.8,106,93.7,106,107,101,85.3,106,115,103,115,86,90.1,81.7,96.5,93.6,80.7,90.7,96.3,85.8,90.3,87.4,84.1,95.9,98.2,95.6,99.9,94.3,95.7,93.4,95.2,101,88.5
COc1ccccc1OCC(O)CN1CCN(CC(=O)Nc2c(C)cccc2C)CC1 (configuration not stated),109,117,142,142,129,157,168,154,138,138,137,115,131,125,167,139,155,141,136,144,139,141,,,,,,,,,,,
COC(=O)Nc1nc2cc(Sc3ccccc3)ccc2[nH]1,,,,,,,,,,,,114,122,124,113,120,107,115,111,22.8,42.9,36.8,122,111,122,115,140,119,119,115,32.6,35.1,29.7
CN(C)[C@H]\1[C@@H]2[C@@H](O)[C@H]3\C(=C(O)/[C@]2(O)C(=O)\C(=C1O)C(N)=O)C(=O)C4=C(C=CC=C4O)[C@@]3(C)O,134,117,117,138,127,131,130,108,113,104,30.7,112,131,120,135,123,126,122,117,113,119,37.1,117,128,117,122,119,128,123,136,105,104,30.1
